Data from ChEMBL document CHEMBL4842364 (J Med Chem, 2021).
Activity calls are given as the source filed them. The calls are words filed in the database; no cut-off is given here.

Key:
[1] = Octanol/buffer distribution coefficient, logD of the compound at pH 7.4; assay type: physicochemical
[2] = Plasma protein binding in human; assay type: ADME, cell-free; details: read-out: PPB (converted)
Cytochrome P450 3A4 = Cytochrome P450 3A4 (Homo sapiens, UniProt P08684); assay: Inhibition of CYP3A4 (unknown origin); assay type: ADME
[3] = Permeability of the compound across apical to basolateral side in human Caco-2 cells; assay type: ADME, cell-based; details: read-out: permeability
[4] = Permeability of the compound across basolateral to apical side in human Caco-2 cells; assay type: ADME, cell-based; details: read-out: permeability
[5] = Efflux ratio of permeability from basolateral to apical side over apical to basolateral side in human Caco-2 cells; assay type: ADME, cell-based
[6] = Intrinsic clearance in mouse microsomes; assay type: ADME, Microsome
[7] = molecular target: Serine/threonine-protein kinase PLK3 (Homo sapiens, UniProt Q9H4B4); assay: Inhibition of PLK3 (unknown origin) at 1 uM relative to control
[8] = molecular target: Serine/threonine-protein kinase PLK1 (Homo sapiens, UniProt P53350); assay: Inhibition of PLK1 (unknown origin) at 1 uM relative to control
[9] = molecular target: T1, Serine/threonine-protein kinase Nek1 (Homo sapiens) (UniProt Q96PY6); assay: Inhibition of NEK1 (unknown origin) at 1 uM relative to control
T1 sequence (whole entry): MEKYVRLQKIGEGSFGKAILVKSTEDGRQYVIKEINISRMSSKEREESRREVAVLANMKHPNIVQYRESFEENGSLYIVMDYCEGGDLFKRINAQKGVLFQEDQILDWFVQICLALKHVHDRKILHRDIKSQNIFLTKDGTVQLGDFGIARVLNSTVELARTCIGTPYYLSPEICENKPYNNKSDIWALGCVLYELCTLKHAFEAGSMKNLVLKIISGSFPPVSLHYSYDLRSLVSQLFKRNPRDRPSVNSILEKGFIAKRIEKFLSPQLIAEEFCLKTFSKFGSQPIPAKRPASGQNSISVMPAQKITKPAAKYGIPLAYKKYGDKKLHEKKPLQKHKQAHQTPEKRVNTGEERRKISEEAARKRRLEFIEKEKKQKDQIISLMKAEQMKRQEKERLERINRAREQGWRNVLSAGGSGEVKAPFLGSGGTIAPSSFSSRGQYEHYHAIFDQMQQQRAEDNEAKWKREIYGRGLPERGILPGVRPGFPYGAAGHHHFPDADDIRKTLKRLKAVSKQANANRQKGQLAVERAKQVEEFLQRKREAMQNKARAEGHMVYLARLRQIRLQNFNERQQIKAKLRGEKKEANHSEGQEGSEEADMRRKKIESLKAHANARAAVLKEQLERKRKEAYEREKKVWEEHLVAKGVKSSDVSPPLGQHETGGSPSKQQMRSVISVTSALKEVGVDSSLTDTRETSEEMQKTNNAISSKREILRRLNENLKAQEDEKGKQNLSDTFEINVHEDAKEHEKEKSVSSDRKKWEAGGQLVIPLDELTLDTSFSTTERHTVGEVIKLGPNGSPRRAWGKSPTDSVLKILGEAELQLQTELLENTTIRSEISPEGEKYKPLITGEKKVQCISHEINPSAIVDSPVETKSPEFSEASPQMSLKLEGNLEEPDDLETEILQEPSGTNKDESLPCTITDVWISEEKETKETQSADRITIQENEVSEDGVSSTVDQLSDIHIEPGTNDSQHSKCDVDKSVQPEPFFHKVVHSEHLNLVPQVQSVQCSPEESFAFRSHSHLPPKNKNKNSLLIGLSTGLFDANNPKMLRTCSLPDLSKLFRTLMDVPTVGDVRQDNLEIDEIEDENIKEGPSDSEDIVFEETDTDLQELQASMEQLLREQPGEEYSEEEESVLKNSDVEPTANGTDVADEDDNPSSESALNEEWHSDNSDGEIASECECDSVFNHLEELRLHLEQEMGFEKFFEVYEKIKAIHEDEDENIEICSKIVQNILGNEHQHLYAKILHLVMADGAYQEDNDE

[10] = molecular target: Tyrosine-protein kinase Lck (Homo sapiens) (UniProt P06239); assay: Inhibition of LCK (unknown origin) at 1 uM relative to control
[11] = molecular target: Voltage-gated inwardly rectifying potassium channel KCNH2 (Homo sapiens, UniProt Q12809); assay: Inhibition of human ERG
[12] = AUC in Beagle dog at 3 mg/kg, iv measured upto 24 hrs by LC-MS/MS analysis; assay type: ADME, organism-based, Canis lupus familiaris; design: route intravenous, dose 3 mg/kg, time <=24; details: in vivo
[13] = AUC in Beagle dog at 10 mg/kg, po measured upto 24 hrs by LC-MS/MS analysis; assay type: ADME, organism-based, Canis lupus familiaris; design: route oral, dose 10 mg/kg, time <=24; details: in vivo
[14] = Cmax in Beagle dog at 10 mg/kg, po measured upto 24 hrs by LC-MS/MS analysis; assay type: ADME, organism-based, Canis lupus familiaris; design: route oral, dose 10 mg/kg, time <=24; details: in vivo
[15] = Half life in Beagle dog at 10 mg/kg, po measured upto 24 hrs by LC-MS/MS analysis; assay type: ADME, organism-based, Canis lupus familiaris; details: in vivo
[16] = Volume of distribution at steady state in Beagle dog at 3 mg/kg, iv measured upto 24 hrs by LC-MS/MS analysis; assay type: ADME, organism-based, Canis lupus familiaris; details: in vivo, read-out: Vdss
A-427 = assay: Antitumor activity against human A-427 cells xenografted in SCID mouse assessed as reduction in tumor growth at 80 mg/kg, po administered once daily for 28 days and measured twice per weeks; assay type: functional, organism-based; details: time 28.0 day
Wee1-like protein kinase = Wee1-like protein kinase (Homo sapiens, UniProt P30291)
Wee1-like protein kinase, sequence (P30291 whole entry): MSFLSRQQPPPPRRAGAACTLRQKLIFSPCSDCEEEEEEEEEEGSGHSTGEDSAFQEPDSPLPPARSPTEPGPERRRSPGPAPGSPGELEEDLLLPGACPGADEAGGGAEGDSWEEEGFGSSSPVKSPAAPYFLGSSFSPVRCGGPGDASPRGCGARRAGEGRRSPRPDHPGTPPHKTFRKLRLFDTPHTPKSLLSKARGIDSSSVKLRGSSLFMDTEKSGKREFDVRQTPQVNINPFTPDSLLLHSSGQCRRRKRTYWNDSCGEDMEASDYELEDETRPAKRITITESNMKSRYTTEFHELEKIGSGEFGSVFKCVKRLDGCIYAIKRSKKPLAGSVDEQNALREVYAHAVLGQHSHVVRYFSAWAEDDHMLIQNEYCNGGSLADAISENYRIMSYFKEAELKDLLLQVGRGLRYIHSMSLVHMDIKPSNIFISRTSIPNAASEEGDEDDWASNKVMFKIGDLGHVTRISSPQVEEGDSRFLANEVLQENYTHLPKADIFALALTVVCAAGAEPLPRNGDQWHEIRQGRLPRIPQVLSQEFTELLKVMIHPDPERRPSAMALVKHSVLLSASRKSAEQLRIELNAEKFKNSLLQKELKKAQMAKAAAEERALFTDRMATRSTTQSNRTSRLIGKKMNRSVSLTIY
Description: Displacement of Alexa Fluor labelled kinase tracer178 from WEE1 (unknown origin) incubated for 60 mins by FRET assay

Serine/threonine-protein kinase PLK3, sequence (Q9H4B4 whole entry, looked up): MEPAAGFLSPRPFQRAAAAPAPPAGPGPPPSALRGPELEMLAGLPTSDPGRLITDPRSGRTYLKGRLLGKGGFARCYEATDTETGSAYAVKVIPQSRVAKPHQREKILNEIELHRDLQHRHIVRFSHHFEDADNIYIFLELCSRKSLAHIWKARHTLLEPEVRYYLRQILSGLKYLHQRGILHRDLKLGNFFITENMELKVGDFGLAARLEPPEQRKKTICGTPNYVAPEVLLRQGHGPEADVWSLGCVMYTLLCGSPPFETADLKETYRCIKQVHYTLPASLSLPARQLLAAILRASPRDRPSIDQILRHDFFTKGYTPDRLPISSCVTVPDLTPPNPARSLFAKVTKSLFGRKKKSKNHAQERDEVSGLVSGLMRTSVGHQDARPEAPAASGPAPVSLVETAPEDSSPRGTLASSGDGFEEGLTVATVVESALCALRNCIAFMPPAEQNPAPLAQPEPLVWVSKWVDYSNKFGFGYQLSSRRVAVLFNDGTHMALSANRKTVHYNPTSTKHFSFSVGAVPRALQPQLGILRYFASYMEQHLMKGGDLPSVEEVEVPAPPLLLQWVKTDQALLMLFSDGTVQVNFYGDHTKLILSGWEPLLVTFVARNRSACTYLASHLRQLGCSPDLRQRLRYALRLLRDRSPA
Voltage-gated inwardly rectifying potassium channel KCNH2, sequence (Q12809 whole entry): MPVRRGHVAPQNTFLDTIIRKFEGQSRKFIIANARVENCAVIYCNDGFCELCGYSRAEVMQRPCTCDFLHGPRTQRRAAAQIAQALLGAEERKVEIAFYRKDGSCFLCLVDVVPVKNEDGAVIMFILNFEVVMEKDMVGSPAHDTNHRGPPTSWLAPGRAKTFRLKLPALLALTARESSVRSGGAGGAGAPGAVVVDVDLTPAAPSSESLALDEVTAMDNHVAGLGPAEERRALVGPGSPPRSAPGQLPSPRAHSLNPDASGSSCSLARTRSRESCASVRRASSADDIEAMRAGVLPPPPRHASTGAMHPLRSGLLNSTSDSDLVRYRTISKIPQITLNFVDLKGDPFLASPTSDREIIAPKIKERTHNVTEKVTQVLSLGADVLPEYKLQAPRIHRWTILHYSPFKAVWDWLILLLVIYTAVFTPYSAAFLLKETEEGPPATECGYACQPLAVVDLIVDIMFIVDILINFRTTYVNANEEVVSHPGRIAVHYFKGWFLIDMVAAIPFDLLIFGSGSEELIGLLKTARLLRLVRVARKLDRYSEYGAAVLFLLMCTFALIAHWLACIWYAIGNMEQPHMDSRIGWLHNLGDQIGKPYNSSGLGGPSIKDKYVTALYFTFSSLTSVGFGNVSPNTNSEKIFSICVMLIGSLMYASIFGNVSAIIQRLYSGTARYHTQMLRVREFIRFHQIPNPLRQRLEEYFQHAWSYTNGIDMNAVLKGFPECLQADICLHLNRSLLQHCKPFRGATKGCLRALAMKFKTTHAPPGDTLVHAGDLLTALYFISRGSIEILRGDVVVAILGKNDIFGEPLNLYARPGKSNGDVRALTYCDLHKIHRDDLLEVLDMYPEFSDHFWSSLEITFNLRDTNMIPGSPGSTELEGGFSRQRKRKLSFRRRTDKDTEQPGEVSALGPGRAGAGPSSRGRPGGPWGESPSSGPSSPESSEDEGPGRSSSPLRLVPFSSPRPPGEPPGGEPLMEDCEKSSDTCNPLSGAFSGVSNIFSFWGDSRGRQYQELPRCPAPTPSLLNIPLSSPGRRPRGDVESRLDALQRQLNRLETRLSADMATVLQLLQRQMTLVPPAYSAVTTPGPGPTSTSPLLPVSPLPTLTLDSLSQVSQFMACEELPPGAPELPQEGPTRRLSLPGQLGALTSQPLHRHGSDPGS
Serine/threonine-protein kinase PLK1, sequence (P53350 whole entry): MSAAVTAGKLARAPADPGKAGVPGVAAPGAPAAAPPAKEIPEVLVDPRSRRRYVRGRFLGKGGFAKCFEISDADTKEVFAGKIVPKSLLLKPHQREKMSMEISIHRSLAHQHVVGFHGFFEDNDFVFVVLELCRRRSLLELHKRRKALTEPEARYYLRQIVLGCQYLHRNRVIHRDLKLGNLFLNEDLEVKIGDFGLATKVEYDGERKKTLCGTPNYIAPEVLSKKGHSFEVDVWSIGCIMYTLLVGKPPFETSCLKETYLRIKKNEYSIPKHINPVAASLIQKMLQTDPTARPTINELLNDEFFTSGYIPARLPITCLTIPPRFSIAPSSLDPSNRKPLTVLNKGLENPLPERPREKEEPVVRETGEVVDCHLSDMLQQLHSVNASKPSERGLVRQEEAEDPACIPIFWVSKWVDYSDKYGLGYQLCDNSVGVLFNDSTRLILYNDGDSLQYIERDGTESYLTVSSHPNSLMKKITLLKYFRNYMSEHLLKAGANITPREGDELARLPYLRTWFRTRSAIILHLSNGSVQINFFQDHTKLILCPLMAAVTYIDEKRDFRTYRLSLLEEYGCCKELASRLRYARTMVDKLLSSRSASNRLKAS
Tyrosine-protein kinase Lck (Homo sapiens), sequence (P06239 2-509 limits assumed): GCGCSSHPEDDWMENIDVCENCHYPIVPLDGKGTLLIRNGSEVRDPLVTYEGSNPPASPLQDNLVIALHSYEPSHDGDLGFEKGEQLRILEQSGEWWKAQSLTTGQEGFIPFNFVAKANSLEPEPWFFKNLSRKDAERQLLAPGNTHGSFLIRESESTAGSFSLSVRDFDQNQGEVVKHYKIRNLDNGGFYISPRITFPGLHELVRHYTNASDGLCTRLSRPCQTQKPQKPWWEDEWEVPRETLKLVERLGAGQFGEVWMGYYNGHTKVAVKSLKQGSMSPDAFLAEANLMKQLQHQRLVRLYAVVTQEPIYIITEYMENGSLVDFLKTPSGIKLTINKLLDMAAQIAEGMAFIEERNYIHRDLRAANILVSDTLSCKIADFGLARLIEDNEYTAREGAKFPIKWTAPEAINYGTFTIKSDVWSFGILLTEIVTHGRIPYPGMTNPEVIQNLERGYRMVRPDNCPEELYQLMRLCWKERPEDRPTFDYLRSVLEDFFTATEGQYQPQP
Cytochrome P450 3A4, sequence (P08684 whole entry): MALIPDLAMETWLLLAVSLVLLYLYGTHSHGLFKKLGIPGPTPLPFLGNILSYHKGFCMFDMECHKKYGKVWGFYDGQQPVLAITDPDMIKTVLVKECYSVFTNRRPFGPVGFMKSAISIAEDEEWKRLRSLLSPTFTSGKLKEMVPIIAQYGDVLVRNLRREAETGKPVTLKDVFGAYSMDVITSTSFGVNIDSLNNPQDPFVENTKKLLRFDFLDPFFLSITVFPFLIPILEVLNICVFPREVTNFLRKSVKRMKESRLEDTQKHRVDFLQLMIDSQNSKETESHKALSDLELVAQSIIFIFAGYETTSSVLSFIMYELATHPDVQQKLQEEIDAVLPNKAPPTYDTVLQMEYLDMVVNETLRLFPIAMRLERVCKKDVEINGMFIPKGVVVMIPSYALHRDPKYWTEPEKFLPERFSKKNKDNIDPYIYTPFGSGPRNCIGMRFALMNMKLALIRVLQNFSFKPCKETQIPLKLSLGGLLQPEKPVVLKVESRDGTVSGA

- logD [1]: 2.4
- fraction unbound [2]: 0.34
- IC50 (Cytochrome P450 3A4): 7 µM
- Papp A→B [3]: 3.6 ×10⁻⁶ cm/s
- Papp B→A [4]: 25.5 ×10⁻⁶ cm/s
- efflux ratio [5]: 7
- CLint scaled [6]: 74 mL/min/kg
- inhibition [7]: > 90%
- inhibition [8]: 75%
- inhibition [9]: 75%
- inhibition [10]: 75%
- AUC at 24 h [12]: 2.1 µM·h
- AUC at 24 h [13]: 9.7 µM·h
- Cmax [14]: 2100 nM
- half-life [15]: 2.3 h
- Vd [16]: 4.4 L/kg
- IC50 (Wee1-like protein kinase): 0.0039 µM
SMILES: C=CCn1c(=O)c2cnc(Nc3ccc(N4CCN(C)CC4)cc3)nc2n1-c1ccc2c(n1)C(O)(CC)CC2 (racemic)
- IC50 [11]: > 30 µM
- Activity (A-427): Active
